Results: PMC9329436, “Optimization of the 4-anilinoquin(az)oline scaffold as epidermal growth factor receptor (EGFR) inhibitors for chordoma utilizing a toxicology profiling assay platform” (Scientific Reports, 2022)
Where two headings read alike, the source gives them in different places.

How the values were obtained:
Format in all cases: biochemical
[1] = biological target: 320 wild-type protein kinases (Homo sapiens, UniProt P31749); conditions: singlicate
Excerpt: (§1) Table S4. Profiling of two compounds at two concentrations against 320 wild-type protein kinases; singlicate measurement; Residual activities (% of control).

[2] = biological target: 320 wild-type protein kinases (Homo sapiens, UniProt Q16620); conditions: kinase TRK-B, singlicate
Excerpt: as §1

[3] = biological target: T1, 320 wild-type protein kinases (Homo sapiens, UniProt Q8NG66); conditions: singlicate
T1 sequence (Q8NG66 1-645): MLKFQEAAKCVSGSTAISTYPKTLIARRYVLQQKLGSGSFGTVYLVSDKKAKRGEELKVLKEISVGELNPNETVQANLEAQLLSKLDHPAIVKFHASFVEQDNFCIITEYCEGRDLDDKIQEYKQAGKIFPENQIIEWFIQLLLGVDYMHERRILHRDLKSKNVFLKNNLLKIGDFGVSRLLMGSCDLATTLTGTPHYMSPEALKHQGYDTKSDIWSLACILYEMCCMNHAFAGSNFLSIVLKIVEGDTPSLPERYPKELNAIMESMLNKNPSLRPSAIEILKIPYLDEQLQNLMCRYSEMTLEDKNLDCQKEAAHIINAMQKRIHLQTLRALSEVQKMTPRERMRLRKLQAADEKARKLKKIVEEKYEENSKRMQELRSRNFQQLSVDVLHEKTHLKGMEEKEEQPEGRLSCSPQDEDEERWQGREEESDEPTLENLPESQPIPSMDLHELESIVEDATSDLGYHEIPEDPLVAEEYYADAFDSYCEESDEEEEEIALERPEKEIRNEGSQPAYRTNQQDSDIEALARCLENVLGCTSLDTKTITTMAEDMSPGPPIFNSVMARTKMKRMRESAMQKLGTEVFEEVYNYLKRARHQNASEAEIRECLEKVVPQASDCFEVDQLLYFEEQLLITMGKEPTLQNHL
Excerpt: as §1

[4] = biological target: T2, 320 wild-type protein kinases (Homo sapiens, UniProt Q9NZJ5); conditions: singlicate
T2 sequence (Q9NZJ5 30-1116): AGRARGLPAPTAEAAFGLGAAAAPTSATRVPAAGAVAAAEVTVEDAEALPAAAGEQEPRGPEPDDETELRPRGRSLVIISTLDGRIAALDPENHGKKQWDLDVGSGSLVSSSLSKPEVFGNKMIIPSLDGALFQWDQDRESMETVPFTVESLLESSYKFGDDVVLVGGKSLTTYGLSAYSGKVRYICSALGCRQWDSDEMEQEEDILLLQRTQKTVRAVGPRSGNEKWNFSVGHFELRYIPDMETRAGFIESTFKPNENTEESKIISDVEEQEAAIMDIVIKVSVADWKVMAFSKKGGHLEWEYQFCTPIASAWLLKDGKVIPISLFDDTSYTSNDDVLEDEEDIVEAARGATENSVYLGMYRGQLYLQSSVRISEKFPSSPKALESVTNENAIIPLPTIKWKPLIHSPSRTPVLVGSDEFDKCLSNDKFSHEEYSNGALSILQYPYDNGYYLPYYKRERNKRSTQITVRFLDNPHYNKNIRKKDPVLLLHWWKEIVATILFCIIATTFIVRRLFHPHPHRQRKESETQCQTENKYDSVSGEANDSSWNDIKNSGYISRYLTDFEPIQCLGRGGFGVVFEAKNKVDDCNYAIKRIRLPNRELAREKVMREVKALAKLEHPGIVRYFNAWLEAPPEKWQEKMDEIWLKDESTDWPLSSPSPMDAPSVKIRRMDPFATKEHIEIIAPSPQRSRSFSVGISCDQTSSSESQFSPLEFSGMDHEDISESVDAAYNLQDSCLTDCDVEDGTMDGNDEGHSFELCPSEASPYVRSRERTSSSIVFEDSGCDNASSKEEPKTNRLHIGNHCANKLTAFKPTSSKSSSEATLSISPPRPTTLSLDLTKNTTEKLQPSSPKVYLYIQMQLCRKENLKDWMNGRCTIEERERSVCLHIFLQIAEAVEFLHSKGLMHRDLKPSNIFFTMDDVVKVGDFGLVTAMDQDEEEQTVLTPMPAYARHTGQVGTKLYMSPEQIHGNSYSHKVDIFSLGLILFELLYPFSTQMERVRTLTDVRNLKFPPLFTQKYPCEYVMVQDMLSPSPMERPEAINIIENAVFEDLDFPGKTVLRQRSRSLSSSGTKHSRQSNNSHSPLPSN
Excerpt: as §1

[5] = biological target: 320 wild-type protein kinases (Homo sapiens, UniProt Q05397); conditions: singlicate
Excerpt: as §1

[6] = biological target: T3, 320 wild-type protein kinases (Homo sapiens, UniProt Q13470); conditions: kinase TNK1, singlicate
T3 sequence (Q13470 1-666): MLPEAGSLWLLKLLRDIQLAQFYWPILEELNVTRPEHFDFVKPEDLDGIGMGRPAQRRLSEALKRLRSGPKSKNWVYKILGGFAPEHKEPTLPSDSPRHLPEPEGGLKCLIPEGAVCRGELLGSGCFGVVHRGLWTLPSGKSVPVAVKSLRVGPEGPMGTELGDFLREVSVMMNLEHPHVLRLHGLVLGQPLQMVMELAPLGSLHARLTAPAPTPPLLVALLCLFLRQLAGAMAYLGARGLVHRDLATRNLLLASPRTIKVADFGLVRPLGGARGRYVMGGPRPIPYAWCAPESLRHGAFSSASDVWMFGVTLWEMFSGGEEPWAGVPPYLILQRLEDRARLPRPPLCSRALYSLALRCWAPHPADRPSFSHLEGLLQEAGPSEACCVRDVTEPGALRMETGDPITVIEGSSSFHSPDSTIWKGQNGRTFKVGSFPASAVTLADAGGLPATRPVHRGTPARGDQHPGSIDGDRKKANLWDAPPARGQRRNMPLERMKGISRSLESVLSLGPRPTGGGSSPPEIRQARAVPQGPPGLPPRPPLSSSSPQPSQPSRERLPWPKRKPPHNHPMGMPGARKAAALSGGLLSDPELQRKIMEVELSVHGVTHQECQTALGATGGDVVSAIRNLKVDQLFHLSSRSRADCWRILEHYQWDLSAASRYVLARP
Excerpt: as §1

[7] = biological target: 320 wild-type protein kinases (Homo sapiens, UniProt P09619); conditions: PDGFR-beta, singlicate
Excerpt: as §1

Chain of 320 wild-type protein kinases (Homo sapiens, UniProt Q05397) (Q05397 whole entry): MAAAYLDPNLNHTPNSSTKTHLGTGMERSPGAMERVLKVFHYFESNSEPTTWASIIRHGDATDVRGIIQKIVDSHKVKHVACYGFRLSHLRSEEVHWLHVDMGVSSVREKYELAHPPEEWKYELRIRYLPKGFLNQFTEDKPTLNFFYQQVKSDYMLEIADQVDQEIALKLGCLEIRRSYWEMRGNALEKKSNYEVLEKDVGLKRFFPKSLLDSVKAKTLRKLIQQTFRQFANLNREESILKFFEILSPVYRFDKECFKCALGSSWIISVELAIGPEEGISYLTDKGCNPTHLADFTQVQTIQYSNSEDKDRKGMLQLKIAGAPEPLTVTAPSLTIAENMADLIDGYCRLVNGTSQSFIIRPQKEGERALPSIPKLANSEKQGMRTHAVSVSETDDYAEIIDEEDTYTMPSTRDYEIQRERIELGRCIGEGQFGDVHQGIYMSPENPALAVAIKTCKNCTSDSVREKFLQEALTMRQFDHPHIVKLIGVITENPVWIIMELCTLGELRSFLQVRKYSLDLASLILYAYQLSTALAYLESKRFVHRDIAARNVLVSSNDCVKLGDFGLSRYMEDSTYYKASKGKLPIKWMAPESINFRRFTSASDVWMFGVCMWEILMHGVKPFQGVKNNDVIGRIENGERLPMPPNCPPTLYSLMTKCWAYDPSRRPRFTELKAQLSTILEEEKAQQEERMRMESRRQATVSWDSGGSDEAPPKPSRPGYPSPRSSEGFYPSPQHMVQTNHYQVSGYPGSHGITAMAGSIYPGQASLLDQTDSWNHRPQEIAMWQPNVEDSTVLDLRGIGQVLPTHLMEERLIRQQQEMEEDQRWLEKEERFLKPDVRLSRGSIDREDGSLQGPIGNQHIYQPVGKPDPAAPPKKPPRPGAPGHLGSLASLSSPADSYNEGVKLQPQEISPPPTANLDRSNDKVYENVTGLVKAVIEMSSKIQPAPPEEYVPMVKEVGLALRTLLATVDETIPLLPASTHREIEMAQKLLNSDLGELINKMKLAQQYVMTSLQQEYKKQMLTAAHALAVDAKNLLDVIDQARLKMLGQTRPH
Chain of 320 wild-type protein kinases (Homo sapiens, UniProt P31749) (P31749 whole entry): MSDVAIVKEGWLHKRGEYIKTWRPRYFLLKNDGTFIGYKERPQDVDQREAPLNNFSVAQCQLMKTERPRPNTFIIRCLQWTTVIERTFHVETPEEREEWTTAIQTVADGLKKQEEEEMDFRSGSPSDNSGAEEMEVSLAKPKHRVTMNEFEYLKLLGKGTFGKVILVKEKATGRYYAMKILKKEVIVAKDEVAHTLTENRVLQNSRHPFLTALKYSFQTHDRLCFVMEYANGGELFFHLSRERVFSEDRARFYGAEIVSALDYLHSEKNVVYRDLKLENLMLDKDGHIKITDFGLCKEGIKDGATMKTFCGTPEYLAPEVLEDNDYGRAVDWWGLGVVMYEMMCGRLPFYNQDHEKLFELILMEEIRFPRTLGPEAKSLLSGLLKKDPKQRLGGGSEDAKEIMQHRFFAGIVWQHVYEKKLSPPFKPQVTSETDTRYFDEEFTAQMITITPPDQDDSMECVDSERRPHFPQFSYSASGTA
Chain of 320 wild-type protein kinases (Homo sapiens, UniProt P09619) (P09619 33-1106): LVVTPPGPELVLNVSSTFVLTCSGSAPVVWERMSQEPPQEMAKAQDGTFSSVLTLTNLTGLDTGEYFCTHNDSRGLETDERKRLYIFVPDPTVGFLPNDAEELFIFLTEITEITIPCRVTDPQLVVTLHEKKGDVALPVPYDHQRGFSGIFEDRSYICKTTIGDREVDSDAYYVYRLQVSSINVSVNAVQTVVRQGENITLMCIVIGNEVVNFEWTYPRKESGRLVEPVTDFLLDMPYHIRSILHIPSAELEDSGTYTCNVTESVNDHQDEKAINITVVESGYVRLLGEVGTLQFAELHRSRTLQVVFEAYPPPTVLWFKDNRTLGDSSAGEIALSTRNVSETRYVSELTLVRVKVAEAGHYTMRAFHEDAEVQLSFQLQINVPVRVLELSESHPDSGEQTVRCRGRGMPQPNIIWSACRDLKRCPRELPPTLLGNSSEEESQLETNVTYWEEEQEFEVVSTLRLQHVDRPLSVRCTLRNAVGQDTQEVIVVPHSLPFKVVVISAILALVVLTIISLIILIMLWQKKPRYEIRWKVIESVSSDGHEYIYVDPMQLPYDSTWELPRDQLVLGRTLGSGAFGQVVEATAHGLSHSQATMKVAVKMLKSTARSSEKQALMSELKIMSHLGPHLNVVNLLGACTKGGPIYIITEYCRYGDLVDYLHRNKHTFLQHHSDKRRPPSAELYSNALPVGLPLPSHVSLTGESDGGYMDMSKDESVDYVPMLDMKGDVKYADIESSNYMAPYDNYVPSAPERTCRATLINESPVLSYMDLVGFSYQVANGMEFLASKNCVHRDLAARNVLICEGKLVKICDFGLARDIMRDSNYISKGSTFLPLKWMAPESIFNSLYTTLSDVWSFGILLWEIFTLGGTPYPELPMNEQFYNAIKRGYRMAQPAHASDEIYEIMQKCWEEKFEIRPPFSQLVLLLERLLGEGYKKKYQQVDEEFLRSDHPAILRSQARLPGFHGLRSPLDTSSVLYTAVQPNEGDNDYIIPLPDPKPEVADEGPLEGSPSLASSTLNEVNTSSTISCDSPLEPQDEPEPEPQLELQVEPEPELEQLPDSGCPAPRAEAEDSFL
Chain of 320 wild-type protein kinases (Homo sapiens, UniProt Q16620) (Q16620 32-822): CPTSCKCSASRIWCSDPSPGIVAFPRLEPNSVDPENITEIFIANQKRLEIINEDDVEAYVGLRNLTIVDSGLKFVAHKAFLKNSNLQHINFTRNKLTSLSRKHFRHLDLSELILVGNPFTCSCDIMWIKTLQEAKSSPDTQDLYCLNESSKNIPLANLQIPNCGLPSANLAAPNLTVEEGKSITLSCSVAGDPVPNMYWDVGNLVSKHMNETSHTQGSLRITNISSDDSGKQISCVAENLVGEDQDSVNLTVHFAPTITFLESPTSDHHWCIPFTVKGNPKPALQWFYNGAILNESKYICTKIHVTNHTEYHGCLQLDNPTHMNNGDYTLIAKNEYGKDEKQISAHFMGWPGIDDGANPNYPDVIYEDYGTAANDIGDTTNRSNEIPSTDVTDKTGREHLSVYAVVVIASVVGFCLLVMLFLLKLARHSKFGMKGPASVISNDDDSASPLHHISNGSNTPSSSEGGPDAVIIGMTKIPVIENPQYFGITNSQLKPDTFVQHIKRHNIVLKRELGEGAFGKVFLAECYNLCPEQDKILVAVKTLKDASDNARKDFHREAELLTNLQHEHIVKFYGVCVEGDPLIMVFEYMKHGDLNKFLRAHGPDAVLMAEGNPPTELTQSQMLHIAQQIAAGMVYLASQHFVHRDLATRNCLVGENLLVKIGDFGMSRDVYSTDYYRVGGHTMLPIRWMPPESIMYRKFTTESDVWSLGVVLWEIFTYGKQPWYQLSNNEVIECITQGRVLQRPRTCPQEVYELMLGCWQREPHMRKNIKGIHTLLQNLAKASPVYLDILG

| SMILES | Residual activity ([1]; AKT1 aa106-480, 1.0E-06 M) | Residual activity ([1]; AKT1 aa106-480, 1.0E-07 M) | Residual activity, TRK-B ([2]; assay conc. 1.0E-06 M) | Residual activity, TRK-B ([2]; assay conc. 1.0E-07 M) | Residual activity ([3]; NEK11, 1.0E-06 M) | Residual activity ([3]; NEK11, 1.0E-07 M) | Residual activity ([4]; EIF2AK3, 1.0E-06 M) | Residual activity ([4]; EIF2AK3, 1.0E-07 M) | Residual activity ([5]; FAK aa2-1052, 1.0E-06 M) | Residual activity ([5]; FAK aa2-1052, 1.0E-07 M) | Residual activity, TNK1 ([6]; assay conc. 1.0E-06 M) | Residual activity, TNK1 ([6]; assay conc. 1.0E-07 M) | Residual activity ([7]; 1.0E-06 M) | Residual activity ([7]; 1.0E-07 M) |
| --- | --- | --- | --- | --- | --- | --- | --- | --- | --- | --- | --- | --- | --- | --- |
| C#Cc1cc(Nc2ncnc3cc(I)ccc23)ccc1Cl [Compound 41] | 94 % of control | 96 % of control | 98 % of control | 107 % of control | 95 % of control | 82 % of control | 95 % of control | 86 % of control | 106 % of control | 138 % of control | 112 % of control | 130 % of control | 98 % of control | 114 % of control |
| C#Cc1cc(Nc2ncnc3cc(OC)c(OC)cc23)ccc1Cl [Compound 45] | 101 % of control | 100 % of control | 97 % of control | 98 % of control | 103 % of control | 106 % of control | 82 % of control | 90 % of control | 95 % of control | 109 % of control | 83 % of control | 117 % of control | 95 % of control | 107 % of control |
